Source: ChEMBL document CHEMBL1201862, “PubChem BioAssay data set” (2004)
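Briefly, cells in 96-well plates were exposed to five compound concentrations for 48 h, and endpoints were estimated by linear interpolation. GI50: concentration for 50% inhibition of growth.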 The source made the active and inactive calls. Cut-off read from the data, not from the text of the source: active = GI50 up to about 1.1 µM and inactive = higher. Positions of bridges follow the written chain, without caps; N, C: chain ends. Residues, ends and D or L forms follow the SMILES beside them.

Key:
Assay in all cases: NCI anticancer screen, dose series, 48 h
[1] = tested on: OVCAR-4
[2] = tested on: HCT-116
[3] = tested on: HOP-62
[4] = tested on: Hs-578T
[5] = tested on: HOP-92
[6] = tested on: K562
[7] = tested on: OVCAR-5
[8] = tested on: SN12C
[9] = tested on: SF-539
[10] = tested on: M14
[11] = tested on: Malme-3M
[12] = tested on: NCI-H226
[13] = tested on: MDA-MB-231
[14] = tested on: EKVX
[15] = tested on: OVCAR-8
[16] = tested on: CAKI-1
[17] = tested on: UACC-62
[18] = tested on: MDA-N
[19] = tested on: NCI-H522
[20] = tested on: UACC-257

SMILES	GI50 [1]	GI50 [2]	GI50 [3]	GI50 [4]	GI50 [5]	GI50 [6]	GI50 [7]	GI50 [8]	GI50 [9]	GI50 [10]	GI50 [11]	GI50 [12]	GI50 [13]	GI50 [14]	GI50 [15]	GI50 [16]	GI50 [17]	GI50 [18]	GI50 [19]	GI50 [20]
CCCOc1ccc2sc(NC(=O)c3cc([N+](=O)[O-])cc([N+](=O)[O-])c3)nc2c1	18.8 µM (inactive)	20.6 µM (inactive)	78.9 µM (inactive)	13.7 µM (inactive)	16 µM (inactive)	65.5 µM (inactive)	> 100 µM (inactive)	42.1 µM (inactive)	29.2 µM (inactive)	50.4 µM (inactive)	25.4 µM (inactive)	27.9 µM (inactive)	35 µM (inactive)	19.4 µM (inactive)	31.3 µM (inactive)	28.6 µM (inactive)	25.5 µM (inactive)	–	–	–
O=c1c2cccnc2cc(-c2ccccc2)n1CCO	> 100 µM (inactive)	> 100 µM (inactive)	> 100 µM (inactive)	> 100 µM (inactive)	–	> 100 µM (inactive)	> 100 µM (inactive)	> 100 µM (inactive)	–	> 100 µM (inactive)	> 100 µM (inactive)	> 100 µM (inactive)	> 100 µM (inactive)	> 100 µM (inactive)	> 100 µM (inactive)	–	> 100 µM (inactive)	> 100 µM (inactive)	> 100 µM (inactive)	> 100 µM (inactive)
Cc1ccc(/N=N/c2c(O)c(C(=O)O)cc3ccccc23)cc1C	> 100 µM (inactive)	> 100 µM (inactive)	62.5 µM (inactive)	42.3 µM (inactive)	> 100 µM (inactive)	82.6 µM (inactive)	> 100 µM (inactive)	–	> 100 µM (inactive)	> 100 µM (inactive)	> 100 µM (inactive)	> 100 µM (inactive)	> 100 µM (inactive)	> 100 µM (inactive)	> 100 µM (inactive)	> 100 µM (inactive)	> 100 µM (inactive)	–	> 100 µM (inactive)	> 100 µM (inactive)
COc1ccc(N2C(=O)C3c4[nH]c5ccc(Br)cc5c4C4CCC(C(C)(C)C)CC4C3C2=O)cc1 (stereo not given)	> 100 µM (inactive)	> 100 µM (inactive)	> 100 µM (inactive)	> 100 µM (inactive)	–	> 100 µM (inactive)	> 100 µM (inactive)	> 100 µM (inactive)	> 100 µM (inactive)	94.2 µM (inactive)	91.8 µM (inactive)	> 100 µM (inactive)	82 µM (inactive)	> 100 µM (inactive)	> 100 µM (inactive)	> 100 µM (inactive)	> 100 µM (inactive)	> 100 µM (inactive)	> 100 µM (inactive)	> 100 µM (inactive)
CC(C)(C)OC(=O)NCC(=O)NC1C/C(=N\O)c2sccc21 (stereo not given)	> 100 µM (inactive)	> 100 µM (inactive)	> 100 µM (inactive)	> 100 µM (inactive)	–	> 100 µM (inactive)	> 100 µM (inactive)	> 100 µM (inactive)	> 100 µM (inactive)	> 100 µM (inactive)	> 100 µM (inactive)	> 100 µM (inactive)	> 100 µM (inactive)	> 100 µM (inactive)	> 100 µM (inactive)	> 100 µM (inactive)	> 100 µM (inactive)	> 100 µM (inactive)	–	> 100 µM (inactive)
Cc1cccc(NC(=S)Nc2ccccc2Cl)n1	24.4 µM (inactive)	> 100 µM (inactive)	22.3 µM (inactive)	38.4 µM (inactive)	–	> 100 µM (inactive)	81.7 µM (inactive)	51.8 µM (inactive)	32.1 µM (inactive)	> 100 µM (inactive)	38 µM (inactive)	39 µM (inactive)	–	21.9 µM (inactive)	29.6 µM (inactive)	27.4 µM (inactive)	41 µM (inactive)	> 100 µM (inactive)	–	22.2 µM (inactive)
COc1ccc(-c2cc(-c3ccco3)c(C#N)c(=S)n2C2OC(CO)C(O)C(O)C2O)cc1 (stereo not given)	> 100 µM (inactive)	> 100 µM (inactive)	> 100 µM (inactive)	> 100 µM (inactive)	–	> 100 µM (inactive)	> 100 µM (inactive)	> 100 µM (inactive)	> 100 µM (inactive)	52 µM (inactive)	> 100 µM (inactive)	> 100 µM (inactive)	36.2 µM (inactive)	> 100 µM (inactive)	> 100 µM (inactive)	> 100 µM (inactive)	–	> 100 µM (inactive)	> 100 µM (inactive)	> 100 µM (inactive)
COC(=O)C1CCC(=O)NCCCCC(NC(=O)C(N)CC(=O)O)C(=O)N1 (stereo not drawn) (H-Asp-Lys-Glu-OMe; lactam 2-3; configuration not given here)	> 100 µM (inactive)	60 µM (inactive)	> 100 µM (inactive)	> 100 µM (inactive)	–	> 100 µM (inactive)	> 100 µM (inactive)	> 100 µM (inactive)	> 100 µM (inactive)	> 100 µM (inactive)	> 100 µM (inactive)	> 100 µM (inactive)	> 100 µM (inactive)	> 100 µM (inactive)	> 100 µM (inactive)	82 µM (inactive)	28.2 µM (inactive)	> 100 µM (inactive)	> 100 µM (inactive)	> 100 µM (inactive)
O=C1c2cc3c(cc2CC1Br)CCC3 (stereo not given)	1.85 µM (inactive)	1.53 µM (inactive)	13.8 µM (inactive)	4.06 µM (inactive)	–	1.39 µM (inactive)	5.64 µM (inactive)	1.7 µM (inactive)	2.03 µM (inactive)	1.45 µM (inactive)	1.01 µM (active)	3.36 µM (inactive)	4.47 µM (inactive)	14.6 µM (inactive)	1.98 µM (inactive)	1.71 µM (inactive)	3.3 µM (inactive)	1.82 µM (inactive)	1.45 µM (inactive)	2.23 µM (inactive)
CCOC(=O)NC(Nc1ccc(Cl)cn1)(C(F)(F)F)C(F)(F)F	–	> 100 µM (inactive)	> 100 µM (inactive)	> 100 µM (inactive)	–	> 100 µM (inactive)	> 100 µM (inactive)	–	> 100 µM (inactive)	> 100 µM (inactive)	> 100 µM (inactive)	> 100 µM (inactive)	> 100 µM (inactive)	> 100 µM (inactive)	–	–	> 100 µM (inactive)	> 100 µM (inactive)	> 100 µM (inactive)	> 100 µM (inactive)
S=C1c2ccc(Cl)cc2-n2cnnc2C2CSCN12 (stereo not given)	> 100 µM (inactive)	62.5 µM (inactive)	> 100 µM (inactive)	> 100 µM (inactive)	–	13.9 µM (inactive)	> 100 µM (inactive)	> 100 µM (inactive)	–	> 100 µM (inactive)	> 100 µM (inactive)	> 100 µM (inactive)	> 100 µM (inactive)	> 100 µM (inactive)	> 100 µM (inactive)	> 100 µM (inactive)	> 100 µM (inactive)	63.1 µM (inactive)	> 100 µM (inactive)	> 100 µM (inactive)
